Patent US11046701B2, “Salt of cetagliptin, preparation method thereof, pharmaceutical composition, and use thereof” (CGENETECH (SUZHOU, CHINA) CO., LTD., priority 2018, dated 2021)
Values joined by “and” are separate entries in the source; they are usually repeats but may differ in a detail not shown here. Equal values may be shown once. Read-outs that look alike come from different tables or passages of the source.

Legend:
[1] = PK/PD experiment of ICR mice: plasma concentration; type: in vivo, CD-1 (ICR) mice; conditions: CD-1 (ICR), mouse; for AUC: read-out: Drug exposure (AUCeff0-3 h)
Method: (§1) Experimental animals: CD-1 (ICR) mice aged for 4 weeks and weighed for about 18-22 g.
(§2) Grouping and administration scheme: the mice were fed adaptively, randomly grouped according to the weight on the day before experiment, and fasted overnight. […] After the experimental grouping, the group provided separately for detecting the initial basic value of DPPIV was carried out blood sampling, and other animals were intragastrically administrated with the drug at an administration volume of 10 mL/kg, the blood was sampled after the administration, and all other animals were stimulated with glucose administration; the blood was sampled at 20 min, 40 min, 60 min and 120 min after the glucose administration, respectively, and the plasma concentration and the DPPIV activity were detected by using plasma.
Research on pharmacodynamics-plasma concentration correlation: blood samples were collected at time points of 1 h, 1.33 h, 1.67 h, 2 h and 3 h after administration, and the plasma concentration was measured. The drug exposure value (AUCeff0-3h) of the DPPIV-P1 increased with the increase of dose, which was 16.09 ng·h/mL, 52.65 ng·h/mL, 162.3 ng·h/mL and 542.28 ng·h/mL, respectively.

[2] = Weight of ICR mice of each group; type: in vivo, CD-1 (ICR) mice; conditions: individual animals
Method: as §1, §2

Compound `C[C@@H]1c2cnc(C(F)(F)F)n2CCN1C(=O)C[C@H](N)Cc1cc(F)c(F)cc1F` [DPPIV-P1, (8R)-7-[(3R)-3-amino-1-oxo-4-(2,4,5-trifluorophenyl)butyl]-5,6,7,8-tetrahydro-8-methyl-3-(trifluoromethyl)imidazo[1,5-a]pyrazine] has a concentration at 1 h ([1]; oral dose 0.1 mg/kg) of 8.28 ± 0.96 ng/mL, a concentration at 1.33 h ([1]; oral dose 0.1 mg/kg) of 6.51 ± 1.58 ng/mL and a concentration at 1.67 h ([1]; oral dose 0.1 mg/kg) of 6.46 ± 0.2 ng/mL. It also gave a concentration at 2 h ([1]; oral dose 0.1 mg/kg) of 5.73 ± 0.65 ng/mL, a concentration at 3 h ([1]; oral dose 0.1 mg/kg) of 4.85 ± 0.25 ng/mL and an AUC ([1]; oral dose 0.1 mg/kg) of 16.1 ng·h/mL. It also gave a concentration at 1 h ([1]; oral dose 0.3 mg/kg) of 26.4 ± 6.47 ng/mL, a concentration at 1.33 h ([1]; oral dose 0.3 mg/kg) of 25 ± 3.42 ng/mL and a concentration at 1.67 h ([1]; oral dose 0.3 mg/kg) of 17.9 ± 2.43 ng/mL. For the same compound, the concentration at 2 h ([1]; oral dose 0.3 mg/kg) was 20.5 ± 0.32 ng/mL, the concentration at 3 h ([1]; oral dose 0.3 mg/kg) was 14.2 ± 1.48 ng/mL and the AUC ([1]; oral dose 0.3 mg/kg) was 52.6 ng·h/mL. For the same compound, the concentration at 1 h ([1]; oral dose 1 mg/kg) was 72.8 ± 7.04 ng/mL, the concentration at 1.33 h ([1]; oral dose 1 mg/kg) was 71.9 ± 2.71 ng/mL and the concentration at 1.67 h ([1]; oral dose 1 mg/kg) was 75.2 ± 6.09 ng/mL. It also gave a concentration at 2 h ([1]; oral dose 1 mg/kg) of 57.9 ± 2.06 ng/mL, a concentration at 3 h ([1]; oral dose 1 mg/kg) of 52.2 ± 5.54 ng/mL and an AUC ([1]; oral dose 1 mg/kg) of 162 ng·h/mL. For the same compound, the concentration at 1 h ([1]; oral dose 3 mg/kg) was 231 ± 16.6 ng/mL, the concentration at 1.33 h ([1]; oral dose 3 mg/kg) was 292 ± 47.2 ng/mL and the concentration at 1.67 h ([1]; oral dose 3 mg/kg) was 242 ± 17.7 ng/mL. It also gave a concentration at 2 h ([1]; oral dose 3 mg/kg) of 201 ± 44.7 ng/mL, a concentration at 3 h ([1]; oral dose 3 mg/kg) of 151 ± 26.4 ng/mL and an AUC ([1]; oral dose 3 mg/kg) of 542 ng·h/mL. For the same compound, the weight ([2]; 0.1 mg/kg group, 0.1 mg/kg, in g (unit assumed)) was 22.0 and 24.5 and 24.7 and 25.1 and 26.3 and 26.9 and 24.6 and 23.4 and 24.4 and 25.0 and 23.0 and 24.8 and 24.9 and 26.2 and 24.2, the weight ([2]; 0.3 mg/kg group, 0.3 mg/kg) was 25.3 (2×) and 24.0 and 24.1 and 23.9 and 24.9 (2×) and 24.6 and 26.4 and 26.0 and 25.5 and 22.0 and 22.6 and 25.0 and 24.4 and the weight ([2]; 1 mg/kg group, 1 mg/kg) was 26.9 and 25.1 (2×) and 23.5 and 23.6 (2×) and 24.9 (2×) and 24.8 and 26.1 and 25.8 and 26.4 and 25.2 and 22.4 and 23.4. For the same compound, the weight ([2]; 3 mg/kg group, 3 mg/kg, in g (unit assumed)) was 25.0 and 24.8 and 23.0 and 25.4 and 21.7 and 27.3 and 22.3 and 22.4 and 25.7 and 24.0 and 23.3 and 24.1 and 25.2 and 27.2 and 24.5.
